Measured values: ChEMBL document CHEMBL4229365, “Synthesis of novel ring-contracted artemisinin dimers with potent anticancer activities” (Eur J Med Chem, 2018)

Legend:
[1] = Half life in human liver microsomes at 1.11 uM preincubated for 10 mins followed by NADPH addition by LC-MS/MS analysis; format: ADME, microsome
A549 = test: Antiproliferative activity against human A549 cells after 72 hrs by CCK-8 assay; format: functional, cell-based; details: A549, 72 h
A-375 = test: Antiproliferative activity against human A375 cells after 72 hrs by CCK-8 assay; format: functional, cell-based; details: A-375, 72 h
L02 = test: Antiproliferative activity against human L02 cells after 72 hrs by CCK-8 assay; format: cell-based; details: L02, 72 h
PC-12 = test: Antiproliferative activity against rat PC12 cells after 72 hrs by CCK-8 assay; format: functional, cell-based; details: PC-12, 72 h
SH-SY5Y = test: Antiproliferative activity against human SH-SY5Y cells after 72 hrs by CCK-8 assay; format: functional, cell-based
HCT-116 = test: Antiproliferative activity against human HCT116 cells after 72 hrs by CCK-8 assay; format: functional, cell-based; details: HCT-116, 72 h

SMILES | half-life at 1.11 µM [1] [min] | IC50 (A549) [µM] | IC50 (A-375) [µM] | IC50 (L02) [µM] | IC50 (PC-12) [µM] | IC50 (SH-SY5Y) [µM] | IC50 (HCT-116) [µM]
C[C@]12CC[C@H]3[C@@H](CCC4=CC(=O)CC[C@@]43C)[C@@H]1CC[C@@H]2O [TESTOSTERONE] | 10.3 |  |  |  |  |  | 
C[C@@H]1CC[C@@H]2[C@]34OO[C@](C)(CC[C@@H]13)O[C@H]4O[C@]2(C)C(=O)OCCCCCCOC(=O)[C@@]1(C)O[C@@H]2O[C@@]3(C)CC[C@H]4[C@H](C)CC[C@@H]1[C@@]24OO3 |  | > 50 | 22.6 | > 50 | 33.2 | 15.3 | > 50
C[C@@H]1CC[C@@H]2[C@]34OO[C@](C)(CC[C@@H]13)O[C@H]4O[C@]2(C)C(=O)OCc1ccccc1COC(=O)[C@@]1(C)O[C@@H]2O[C@@]3(C)CC[C@H]4[C@H](C)CC[C@@H]1[C@@]24OO3 |  | 21.7 | > 50 | 5 | 8.73 | 47.5 | 15.1
C[C@@H]1CC[C@@H]2[C@]34OO[C@](C)(CC[C@@H]13)O[C@H]4O[C@]2(C)C(=O)OCCCCCCCCCOC(=O)[C@@]1(C)O[C@@H]2O[C@@]3(C)CC[C@H]4[C@H](C)CC[C@@H]1[C@@]24OO3 |  | 12.2 | 8.13 | 33.7 | 4.46 | 5.12 | 7.41
CCOP(=O)(OC[C@@]1(C)O[C@@H]2O[C@@]3(C)CC[C@H]4[C@H](C)CC[C@@H]1[C@@]24OO3)OC[C@@]1(C)O[C@@H]2O[C@@]3(C)CC[C@H]4[C@H](C)CC[C@@H]1[C@@]24OO3 |  | 15.4 | 9.62 | 33.9 | 5.46 |  | 14.8
C[C@@H]1CC[C@@H]2[C@]34OO[C@](C)(CC[C@@H]13)O[C@H]4O[C@]2(C)C(=O)Nc1cccc(NC(=O)[C@@]2(C)O[C@@H]3O[C@@]4(C)CC[C@H]5[C@H](C)CC[C@@H]2[C@@]35OO4)c1 |  | > 50 | > 50 |  | > 50 | > 50 | > 50
C[C@@H]1CC[C@@H]2[C@]34OO[C@](C)(CC[C@@H]13)O[C@H]4O[C@]2(C)C(=O)OCCCCCCCCCCCCOC(=O)[C@@]1(C)O[C@@H]2O[C@@]3(C)CC[C@H]4[C@H](C)CC[C@@H]1[C@@]24OO3 |  | > 50 | > 50 |  | > 50 | > 50 | > 50
C[C@@H]1CC[C@@H]2[C@]34OO[C@](C)(CC[C@@H]13)O[C@H]4O[C@]2(C)C(=O)OCCCCCOC(=O)[C@@]1(C)O[C@@H]2O[C@@]3(C)CC[C@H]4[C@H](C)CC[C@@H]1[C@@]24OO3 |  | 12 | > 50 |  | > 50 | 9.26 | > 50
C[C@@H]1CC[C@@H]2[C@]34OO[C@](C)(CC[C@@H]13)O[C@H]4O[C@]2(C)C(=O)OCCCCCCCOC(=O)[C@@]1(C)O[C@@H]2O[C@@]3(C)CC[C@H]4[C@H](C)CC[C@@H]1[C@@]24OO3 |  | 7.71 | 7.86 | 16.6 | 8.17 | 7.29 | 11.6
C[C@@H]1CC[C@@H]2[C@]34OO[C@](C)(CC[C@@H]13)O[C@H]4O[C@]2(C)C(=O)OCC(C)(C)COC(=O)[C@@]1(C)O[C@@H]2O[C@@]3(C)CC[C@H]4[C@H](C)CC[C@@H]1[C@@]24OO3 |  | > 50 | > 50 |  | > 50 | > 50 | > 50
CCOP(=O)(OC/C=C\[C@@]1(C)O[C@@H]2O[C@@]3(C)CC[C@H]4[C@H](C)CC[C@@H]1[C@@]24OO3)OC/C=C/[C@@]1(C)O[C@@H]2O[C@@]3(C)CC[C@H]4[C@H](C)CC[C@@H]1[C@@]24OO3 |  | 11.4 | 12.4 | 18.7 | 5.26 | 6.38 | 10.7
C[C@@H]1CC[C@@H]2[C@]34OO[C@](C)(CC[C@@H]13)O[C@H]4O[C@]2(C)C(=O)NCCCCCCCCNC(=O)[C@@]1(C)O[C@@H]2O[C@@]3(C)CC[C@H]4[C@H](C)CC[C@@H]1[C@@]24OO3 |  | 18.9 | 19.4 | > 50 | 11.2 | > 50 | > 50
C[C@@H]1CC[C@@H]2[C@]34OO[C@](C)(CC[C@@H]13)O[C@H]4O[C@]2(C)C(=O)NCCCCNC(=O)[C@@]1(C)O[C@@H]2O[C@@]3(C)CC[C@H]4[C@H](C)CC[C@@H]1[C@@]24OO3 |  | > 50 | > 50 |  | 25.4 | > 50 | > 50
